For 24 compounds, EC50 results are on record in patent US8623899B2, “Bis-benzimidazole derivatives as hepatitis C virus inhibitors” (Janssen Research & Development Ireland, priority 2009, dated 2014).

The experiment relates to HCV type 1b replicon in Huh-7 luc/neo (Huh-Luc) cells. Description: HCV replicon assay (Huh-Luc, luciferase readout). It counts as cell-based. The conditions noted are these: Hepatitis C virus, Huh-7, 72 h, luciferase activity, incubation of three days, read-out: HCV-REP-HUH7LUC_EC50. The source says: The compounds of formula (I) were examined for inhibitory activity in the HCV replicon. This cellular assay is based on a bicistronic expression construct, as described by Lohmann et al. (1999) Science vol. 285 pp. 110-113 with modifications described by Krieger et al. (2001) Journal of Virology 75: 4614-4624, in a multi-target screening strategy.
In essence, the method was as follows:
The assay utilized the stably transfected cell line Huh-7 luc/neo (hereafter referred to as Huh-Luc). This cell line harbors an RNA encoding a bicistronic expression construct comprising the wild type NS3-NS5B regions of HCV type 1b translated from an Internal Ribosome Entry Site (IRES) from encephalomyocarditis virus (EMCV), preceded by a reporter portion (FfL-luciferase), and a selectable marker portion (neo^R, neomycine phosphotransferase). The construct is flanked by 5′ and 3′ NTRs (non-translated regions) from HCV type 1b. Continued culture of the replicon cells in the presence of G418 (neo^R) is dependent on the replication of the HCV RNA. The stably transfected replicon cells that express HCV RNA, which replicates autonomously and to high levels, encoding inter alia luciferase, were used for screening the antiviral compounds.
The replicon cells were plated in 384 well plates in the presence of the test and control compounds which were added in various concentrations. Following an incubation of three days, HCV replication was measured by assaying luciferase activity (using standard luciferase assay substrates and reagents and a Perkin Elmer ViewLux™ ultraHTS microplate imager). Replicon cells in the control cultures have high luciferase expression in the absence of any inhibitor. The inhibitory activity of the compound on luciferase activity was monitored on the Huh-Luc cells, enabling a dose-response curve for each test compound. EC50 values were then calculated, which represent the amount of compound required to decrease the level of detected luciferase activity by 50%, or more specifically, to reduce the ability of the genetically linked HCV replicon RNA to replicate.
For orientation: Replicon systems follow genome replication, usually without infectious particles.
For the compound `O=C(c1ccc(F)cc1)N1CCC[C@H]1c1nc2ccc(-c3ccc(-c4ccc5nc([C@@H]6CCCN6C(=O)c6ccc(F)cc6)[nH]c5c4)cc3)cc2[nH]1` [Compound 27], the EC50 stood at 240 nM.

For `CC(C)[C@@H](C(=O)N1CCC[C@H]1c1nc2ccc(-c3ccc(-c4ccc5nc([C@@H]6CCCN6C(=O)[C@H](C(C)C)N(C)C)[nH]c5c4)cc3)cc2[nH]1)N(C)C` [Compound 28], the EC50 came out at 70 nM.

Turning to `O=C(CC1CCCCC1)N1CCC[C@H]1c1nc2ccc(-c3ccc(-c4ccc5nc([C@@H]6CCCN6C(=O)CC6CCCCC6)[nH]c5c4)cc3)cc2[nH]1` [Compound 29], the EC50 stood at 550 nM.

For the compound `COC(=O)N[C@H](C(=O)N1CCC[C@H]1c1nc2ccc(-c3ccc(-c4ccc5nc([C@@H]6CCCN6C(=O)[C@@H](NC(=O)OC)C(C)C)[nH]c5c4)cc3)cc2[nH]1)C(C)C` [Compound 30], the EC50 turned out to be 0.006 nM.

For `O=C(c1cccnc1)N1CCC[C@H]1c1nc2ccc(-c3ccc(-c4ccc5nc([C@@H]6CCCN6C(=O)c6cccnc6)[nH]c5c4)cc3)cc2[nH]1` [Compound 31], the EC50 was determined as 280 nM.

Turning to `COC(=O)N[C@@H](C(=O)N1CCC[C@H]1c1nc2ccc(-c3ccc(-c4ccc5nc([C@@H]6CCCN6C(=O)[C@H](NC(=O)OC)C(C)C)[nH]c5c4)cc3)cc2[nH]1)C(C)C` [Compound 32], the EC50 came out at 6.9 nM.

Take `CC(C)[C@H](O)C(=O)N1CCC[C@H]1c1nc2ccc(-c3ccc(-c4ccc5nc([C@@H]6CCCN6C(=O)[C@@H](O)C(C)C)[nH]c5c4)cc3)cc2[nH]1` [Compound 33]: the EC50 stood at 110 nM.

For `O=C([C@H](O)c1ccccc1)N1CCC[C@H]1c1nc2ccc(-c3ccc(-c4ccc5nc([C@@H]6CCCN6C(=O)[C@H](O)c6ccccc6)[nH]c5c4)cc3)cc2[nH]1` [Compound 34], the EC50 is 0.0037 nM.

With `CN(C)[C@@H](C(=O)N1CCC[C@H]1c1nc2ccc(-c3ccc(-c4ccc5nc([C@@H]6CCCN6C(=O)[C@@H](c6ccccc6)N(C)C)[nH]c5c4)cc3)cc2[nH]1)c1ccccc1` [Compound 36], the EC50 turned out to be 0.073 nM.

Take `COC(=O)N[C@H](C(=O)N1CCC[C@H]1c1nc2ccc(-c3ccc(-c4ccc5nc([C@@H]6CCCN6C(=O)[C@@H](NC(=O)OC)C(C)(C)C)[nH]c5c4)cc3)cc2[nH]1)C(C)(C)C` [Compound 37]: the EC50 was 0.01 nM.

With `CC(C)(C)OC(=O)N[C@@H](C(=O)N1CCC[C@H]1c1nc2ccc(-c3ccc(-c4ccc5nc([C@@H]6CCCN6C(=O)[C@H](NC(=O)OC(C)(C)C)c6ccccc6)[nH]c5c4)cc3)cc2[nH]1)c1ccccc1` [Compound 38], the EC50 amounted to 0.014 nM.

Regarding `COC(=O)N[C@@H](C(=O)N1CCCC1c1nc2ccc(-c3ccc(-c4ccc5nc([C@@H]6CCCN6C(=O)[C@H](NC(=O)OC)c6ccccc6)[nH]c5c4)cc3)cc2[nH]1)c1ccccc1` (stereo partly drawn) [Compound 39], the EC50 amounted to 0.0067 nM.

As for `COC(=O)N[C@H](C(=O)N1CCC[C@H]1c1nc2cc(-c3ccc(-c4ccc5nc([C@@H]6CCCN6C(=O)[C@@H](NC(=O)OC)C6CC6)[nH]c5c4)cc3)ccc2[nH]1)C1CC1` [Compound 40], the EC50 amounted to 0.014 nM.

Consider `CCOC(=O)N[C@H](C(=O)N1CCC[C@H]1c1nc2ccc(-c3ccc(-c4ccc5nc([C@@H]6CCCN6C(=O)[C@@H](NC(=O)OCC)C(C)C)[nH]c5c4)cc3)cc2[nH]1)C(C)C` [Compound 41], for which the EC50 is 17 nM.

As for `CCN(C1CC1)[C@@H](C(=O)N1CCC[C@H]1c1nc2ccc(-c3ccc(-c4ccc5nc([C@@H]6CCCN6C(=O)[C@@H](c6ccccc6)N(CC)C6CC6)[nH]c5c4)cc3)cc2[nH]1)c1ccccc1` [Compound 42], the EC50 was 0.063 nM.

On to `O=C([C@@H](c1ccccc1)N1CCCC1)N1CCC[C@H]1c1nc2ccc(-c3ccc(-c4ccc5nc([C@@H]6CCCN6C(=O)[C@@H](c6ccccc6)N6CCCC6)[nH]c5c4)cc3)cc2[nH]1` [Compound 45], for which the EC50 came to 0.051 nM.

In the case of `O=C([C@@H](c1ccccc1)N1CCOCC1)N1CCC[C@H]1c1nc2ccc(-c3ccc(-c4ccc5nc([C@@H]6CCCN6C(=O)[C@@H](c6ccccc6)N6CCOCC6)[nH]c5c4)cc3)cc2[nH]1` [Compound 46], the EC50 is 0.022 nM.

Turning to `O=C([C@H](O)c1ccccc1Cl)N1CCC[C@H]1c1nc2ccc(-c3ccc(-c4ccc5nc([C@@H]6CCCN6C(=O)[C@H](O)c6ccccc6Cl)[nH]c5c4)cc3)cc2[nH]1` [Compound 48], the EC50 stood at 0.011 nM.

Regarding `O=C([C@H](O)c1cccc(Cl)c1)N1CCC[C@H]1c1nc2ccc(-c3ccc(-c4ccc5nc([C@@H]6CCCN6C(=O)[C@H](O)c6cccc(Cl)c6)[nH]c5c4)cc3)cc2[nH]1` [Compound 49], the EC50 worked out at 0.027 nM.

With `COCC[C@H](NC(=O)OC)C(=O)N1CCC[C@H]1c1nc2ccc(-c3ccc(-c4ccc5nc([C@@H]6CCCN6C(=O)[C@H](CCOC)NC(=O)OC)[nH]c5c4)cc3)cc2[nH]1` [Compound 51], the EC50 turned out to be 0.012 nM.

On to `CC(C)OC(=O)N[C@H](C(=O)N1CCC[C@H]1c1nc2ccc(-c3ccc(-c4ccc5nc([C@@H]6CCCN6C(=O)[C@@H](NC(=O)OC(C)C)C(C)C)[nH]c5c4)cc3)cc2[nH]1)C(C)C` [Compound 52], for which the EC50 was over 98 nM.

Regarding `CCC(=O)N[C@H](C(=O)N1CCC[C@H]1c1nc2ccc(-c3ccc(-c4ccc5nc([C@@H]6CCCN6C(=O)[C@@H](NC(=O)CC)C(C)C)[nH]c5c4)cc3)cc2[nH]1)C(C)C` [Compound 53], the EC50 came out at 4 nM.

Take `CC(C)[C@@H](C(=O)N1CCC[C@H]1c1nc2ccc(-c3ccc(-c4ccc5nc([C@@H]6CCCN6C(=O)[C@H](C(C)C)N6CCCNC6=O)[nH]c5c4)cc3)cc2[nH]1)N1CCCNC1=O` [Compound 54]: the EC50 was found to be 0.065 nM.

Turning to `COC(=O)N[C@@H](CC(C)C)C(=O)N1CCC[C@H]1c1nc2ccc(-c3ccc(-c4ccc5nc([C@@H]6CCCN6C(=O)[C@H](CC(C)C)NC(=O)OC)[nH]c5c4)cc3)cc2[nH]1` [Compound 56], the EC50 stood at 0.012 nM.
